The values below come from patent publication US5674432A, “Photochromic naphthopyran compounds” (Transitions Optical, Inc., priority 1995, dated 1997).

Series [1] in a line: photochromic response on an optical bench (sensitivity, saturation optical density, bleach rate) of imbibed test squares. In kind it is physicochemical. The settings on record: for OD @ SATURATION: UV exposure continued for 20 minutes; for OD @ SATURATION / Δ OD/Min SENSITIVITY: 75° F. (23.9° C.); for Δ OD/Min SENSITIVITY: first five (5) seconds of UV exposure, expressed per minute; for BLEACH RATE T1/2: time for absorbance of activated form to reach one half the highest absorbance at room temperature (75° F., 23.9° C.) after removal of activating light. How it is done: Testing was done with selected photochromic naphthopyrans imbibed into test square polymerizates by a thermal transfer process. The test square polymerizates were prepared from a homopolymer of diethylene glycol bis(allyl carbonate) and measured 1/8 inch (0.3 centimeters)×2 inches (5.1 centimeters)×2 inches (5.1 centimeters). The test squares were imbibed by the following procedure. Each naphthopyran was dissolved .into toluene to form a 4 weight percent solution of the compound. A piece of No.4 Whatman filter paper was saturated with the naphthopyran toluene solution and allowed to air dry. The dried filter paper was placed on one side of the test square. A piece of untreated filter paper was placed on the other side of the polymeric test square and the resulting sandwich was placed between two flat aluminum metal plates. […] After cooling, each test square was washed with acetone.
The photochromic test squares of Part B were tested for photochromic response rates on an optical bench.
(§1) The optical bench comprises a 150 watt Xenon arc lamp, a tungsten lamp, power supplies for both lamps, condensing lenses as needed to maintain collimated light beams from both lamps, a remote controlled shutter, a copper sulfate bath acting as a heat sink for the arc lamp, a Schott WG-320 nm cut-off filter which removes short wavelength radiation, neutral density filter(s), a sample holder in which the sample to be tested is inserted, a photopic filter, light detector, and radiometer assembly, a strip chart recorder, and a means for maintaining the alignment of the aforestated components during testing.
Change in optical density (ΔOD) of a sample was determined by inserting a photochromic test sample in the bleached state into the sample holder, adjusting the transmittance scale to 100%, opening the shutter from the Xenon lamp to provide ultraviolet radiation to change the sample from the bleached state to an activated (darkened) state, measuring the transmittance through the sample. The transmittance was measured by directing a beam of light from the tungsten lamp at a small angle normal to the surface of the sample, through the sample, and to a photopic filter, light detector and radiometer assembly. The photopic filter passes wavelengths such that the detector mimics the response of the human eye and produces output signals that are processed by the radiometer. The change in optical density was calculated according to the formula ΔOD=log(100/% Ta) where % Ta is the percent transmittance in the activated state and the logarithm is to the base 10.
(§2) The ΔOD/Min, which represents the sensitivity of the photochromic compound's response to UV light, was measured over the first five (5) seconds of UV exposure, then expressed on a per minute basis. The saturation optical density (OD) was taken under identical conditions as the ΔOD/Min, except UV exposure was continued for 20 minutes. The lambda max (VIS) reported in Table 2 is the wavelength in the visible spectrum at which the maximum absorption of the activated (colored) form of the photochromic compound in a homopolymer of diethylene glycol bis(allyl carbonate) occurs.

Series [2] can be described thus: lambda max (UV) in diethylene glycol dimethyl ether solution by UV spectrophotometer. In kind it is physicochemical. Also noted: unit not given here. Conditions: approximately 0.5 milligram per milliliter, wavelength in the ultraviolet range closest to the visible spectrum. How it is done:
The compounds of the Examples and the Comparative Examples were dissolved in diethylene glycol dimethyl ether. The concentrations of the resulting solutions were approximately 0.5 milligram per milliliter. Each solution was tested in a UV spectrophotometer to determine the lambda max (U/V). The lambda max (UV) reported in Table 1 for each of the Examples is the wavelength in the ultraviolet range closest to the visible spectrum.

The nature of series [3]: lambda max (VIS) of the activated (colored) form in a homopolymer of diethylene glycol bis(allyl carbonate). In kind it is physicochemical. How it is done: Testing was done with selected photochromic naphthopyrans imbibed into test square polymerizates by a thermal transfer process. The test square polymerizates were prepared from a homopolymer of diethylene glycol bis(allyl carbonate) and measured 1/8 inch (0.3 centimeters)×2 inches (5.1 centimeters)×2 inches (5.1 centimeters). The test squares were imbibed by the following procedure. Each naphthopyran was dissolved .into toluene to form a 4 weight percent solution of the compound. A piece of No.4 Whatman filter paper was saturated with the naphthopyran toluene solution and allowed to air dry. The dried filter paper was placed on one side of the test square. A piece of untreated filter paper was placed on the other side of the polymeric test square and the resulting sandwich was placed between two flat aluminum metal plates. The entire assembly was then placed in an oven kept at 135° to 155° C. for a time sufficient to thermally transfer the naphthopyran into the polymeric test square. After cooling, each test square was washed with acetone.
The photochromic test squares of Part B were tested for photochromic response rates on an optical bench. Prior to testing on the optical bench, the photochromic test squares were exposed to 365 nanometer ultraviolet light for about 15 minutes to activate the photochromic compounds and then placed into a 76° C. oven for about 15 minutes to bleach or inactivate the photochromic compounds. The test squares were then cooled to room temperature, exposed to fluorescent room lighting for at least 2 hours and then kept covered for at least 2 hours prior to testing on an optical bench maintained at 75° F. (23.9° C.).
as §1
as §2, with “occurs. The bleach rate (T 1/2) is the time interval in seconds for the absorbance of the activated form of the naphthopyran in the test squares to reach one half the highest absorbance at room temperature (75° F., 23.9° C.) after removal of the source of activating light.” for “occurs.”

For series [4] the following is noted: cited from earlier work.
[5] abbreviates: vs 3,3-diphenyl-3H-naphtho[2,1-b]pyran and 5-, 7- or 9-methoxy compounds, U.S. Pat. No. 5,238,981.

SMILES strings stand for the structures.

With `C1=CC(c2ccccc2)(c2ccccc2)Oc2ccc3ccccc3c21` [Comparative Example 1, 3,3-diphenyl-3H-naphtho[2,1-b]pyran, reference compound], in series [1], the “OD @ SATURATION” value is given as 0.36, the “Δ OD/Min SENSITIVITY” value was 0.87 Δ OD/Min and the “BLEACH RATE T1/2” value turned out to be 0.75 min. In addition, the “Lambda max (UV)” value in series [2] is given as 359. For the same molecule, the “LAMBDA MAX (VIS)” value in series [3] is 430 nm. Further, in series [4] (at room temperature and above), the “optical density at saturation” value is reported as “too low for use in optical applications”, the “optical density change on exposure to ultraviolet light” value is “changes too slowly” and the “sensitivity on exposure to ultraviolet light” value was “low”.

On to `COc1ccc2c3c(ccc2c1)OC(c1ccccc1)(c1ccccc1)C=C3` [Comparative Example 2, 3,3-diphenyl-8-methoxy-3H-naphtho[2,1-b]pyran, reference compound], for which, in series [1], the “OD @ SATURATION” value amounted to 0.73, the “Δ OD/Min SENSITIVITY” value is listed as 1.25 Δ OD/Min and the “BLEACH RATE T1/2” value stood at 1.45 min. The “Lambda max (UV)” value in series [2] turned out to be 376. Besides, the “LAMBDA MAX (VIS)” value in series [3] was 473 nm. In addition, in series [4] (near visible threshold range about 390 to 410 nanometers, U.S. Pat. No. 5,238,981), the “lambda max (UV), in words” value is “shifted towards the near visible threshold range”. In addition, in series [4] (setting [5]), the “optical density at saturation, comparison in words” value was “enhanced sensitivity and optical density at saturation”; the “sensitivity, comparison in words” value is “enhanced sensitivity”.

Regarding `Cc1cccc(C2(c3ccccc3)C=Cc3c(ccc4c5c(ccc34)OC(C)C5)O2)c1` (stereo not drawn) [Example 1, 7-(phenyl)-7-(3-methylphenyl)-7H-2-methyl-2,3-dihydrofuro[3',2',:5,6]naphtho[2,1-b]pyran], in series [2], the “Lambda max (UV)” value is given as 394.

On to `CC1Cc2c(ccc3c4c(ccc23)OC(c2ccccc2)(c2ccccc2)C=C4)O1` (stereo not drawn) [Example 2, 7,7-diphenyl-7H-2-methyl-2,3-dihydrofuro[3',2',:5,6]naphtho[2,1-b]pyran], for which, in series [1], the “OD @ SATURATION” value worked out at 0.66, the “Δ OD/Min SENSITIVITY” value is listed as 1.35 Δ OD/Min and the “BLEACH RATE T1/2” value was 1.77 min. In addition, the “Lambda max (UV)” value in series [2] stood at 394. In series [3], the “LAMBDA MAX (VIS)” value stood at 488 nm.

In the case of `CC1Cc2c(ccc3c4c(ccc23)OC(c2ccccc2)(c2cccc(C(F)(F)F)c2)C=C4)O1` (stereo not drawn) [Example 3, 7-(phenyl)-7-(3-trifluoromethylphenyl)-7H-2-methyl-2,3-dihydrofuro[3',2',:5,6]naphtho[2,1-b]pyran], in series [1], the “OD @ SATURATION” value was found to be 0.74, the “Δ OD/Min SENSITIVITY” value is listed as 1.38 Δ OD/Min and the “BLEACH RATE T1/2” value came out at 2.18 min. For the same molecule, in series [2], the “Lambda max (UV)” value stood at 396. Besides, the “LAMBDA MAX (VIS)” value in series [3] amounted to 494 nm.

As to `CC1Cc2c(ccc3c4c(ccc23)OC(c2ccccc2)(c2cccc(F)c2)C=C4)O1` (stereo not drawn) [Example 4, 7-(phenyl)-7-(3-fluorophenyl)-7H-2-methyl-2,3-dihydrofuro[3',2',:5,6]naphtho[2,1-b]pyran], in series [1], the “OD @ SATURATION” value is recorded as 0.76, the “Δ OD/Min SENSITIVITY” value is 1.44 Δ OD/Min and the “BLEACH RATE T1/2” value was determined as 1.82 min. In series [2], the “Lambda max (UV)” value came out at 394. In addition, in series [3], the “LAMBDA MAX (VIS)” value was 489 nm.

For the molecule `COc1cccc(C2(c3ccccc3)C=Cc3c(ccc4c5c(ccc34)OC(C)C5)O2)c1` (stereo not drawn) [Example 5, 7-(phenyl)-7-(3-methoxyphenyl)-7H-2-methyl-2,3-dihydrofuro[3',2',:5,6]naphtho[2,1-b]pyran], in series [1], the “OD @ SATURATION” value is recorded as 0.74, the “Δ OD/Min SENSITIVITY” value is on record as 1.43 Δ OD/Min and the “BLEACH RATE T1/2” value stood at 2.75 min. The “Lambda max (UV)” value in series [2] is listed as 395. Besides, in series [3], the “LAMBDA MAX (VIS)” value was 495 nm.

As for `COc1ccc(C2(c3ccccc3F)C=Cc3c(ccc4c5c(ccc34)OC(C)C5)O2)cc1` (stereo not drawn) [Example 6, 7-(2-fluorophenyl)-7-(4-methoxyphenyl)-7H-2-methyl-2,3-dihydrofuro[3',2',:5,6]naphtho[2,1-b]pyran], the “Lambda max (UV)” value in series [2] was found to be 393.

As for `Cc1coc2ccc3c4c(ccc3c12)OC(c1ccccc1)(c1ccccc1)C=C4` [Example 7, 7,7-diphenyl-7H-3-methylfuro[3',2',:5,6]naphtho[2,1-b]pyran], the “Lambda max (UV)” value in series [2] was found to be 372.

With `C1=CC(c2ccccc2)(c2ccccc2)Oc2ccc3c4c(ccc3c21)OCCC4` [Example 8, 9,9-diphenyl-3H,9H-1,2-dihydronaphtho[2,1-b:6,5-b']dipyran], in series [2], the “Lambda max (UV)” value is reported as 382.

With `COc1ccc(C2(c3ccc(OC)cc3OC)C=Cc3c(ccc4c3ccc3oc(=O)cc(C)c34)O2)cc1` (stereo not drawn) [Example 9, 9-(2,4-dimethoxyphenyl)-9-(4'-methoxyphenyl)-1-methyl-3H,9H-naphtho[2,1-b:6,5-b']dipyran-3-one], the “Lambda max (UV)” value in series [2] was found to be 396.

As to `COc1ccc(C2(c3ccc(OC)cc3OC)C=Cc3c(ccc4c3ccc3oc(C)cc(=O)c34)O2)cc1` (stereo not drawn) [Example 10, 9-(2,4-dimethoxyphenyl)-9-(4'-methoxyphenyl)-3-methyl-1H,9H-naphtho[2,1-b:6,5-b']dipyran-1-one], in series [2], the “Lambda max (UV)” value was 384.
